Measurements as given in patent US8426448B2, “1,5-diphenyl-pyrrolidin-2-one compounds as CB-1 ligands” (Eli Lilly and Company, priority 2008, dated 2013).
Counter-ions that a name gives are not always drawn.

Assays:
[1] = target: T1, hCB-1 (Homo sapiens, UniProt P21554); experiment: hCB1-Sf9 antagonist mode SPA GTP-γ-35S binding assay; format: biochemical; design: purchased Applied Cell Sciences, Rockville, Md; conditions: Sf9 membrane 22.7 μg; antagonist mode vs methanandamide; read-out: hCB-1 SPA GTPγS Sf9 Membrane 22.7 μg Antagonist Kb
T1 sequence (P21554 whole entry): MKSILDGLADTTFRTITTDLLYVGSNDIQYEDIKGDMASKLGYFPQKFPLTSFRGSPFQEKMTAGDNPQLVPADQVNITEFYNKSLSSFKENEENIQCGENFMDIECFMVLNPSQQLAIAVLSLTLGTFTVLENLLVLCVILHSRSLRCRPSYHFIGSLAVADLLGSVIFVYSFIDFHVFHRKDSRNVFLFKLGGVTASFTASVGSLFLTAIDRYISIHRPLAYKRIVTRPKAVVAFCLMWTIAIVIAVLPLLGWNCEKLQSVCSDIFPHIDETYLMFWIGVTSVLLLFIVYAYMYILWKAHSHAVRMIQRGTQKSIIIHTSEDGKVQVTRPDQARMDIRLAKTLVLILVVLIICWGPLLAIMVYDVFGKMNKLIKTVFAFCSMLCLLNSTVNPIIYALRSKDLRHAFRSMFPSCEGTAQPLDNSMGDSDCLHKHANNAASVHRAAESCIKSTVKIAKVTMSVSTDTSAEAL
Experimental: (§1) Compounds of the present invention may be tested for functional activity at the CB-1 and CB-2 receptors in both agonist and antagonist modes using SPA (Scintillation Proximity Assay) based GTP-γ-^35S binding assays. All assay components are prepared in assay buffer (20 mM HEPES, 100 mM NaCl, 5 mM MgCl2, pH 7.4) at room temperature. Semi-log dilutions of test compound are prepared in assay buffer containing BSA (0.125% final conc.) for the agonist mode assays. For the antagonist mode assays, test compounds are prepared in the same manner but also include an 80% efficacious dose of a full agonist (methanandamide). GTP-γ^35S binding for the antagonist assay may be measured in a 96 well format using a modification of an antibody capture technique previously described. (DeLapp, N W, et al. (1999) J Pharmacol Exp Ther 289:946-955.) The CB-2 receptor agonist activity may be measured using a similar method using hCB2-Sf9 membranes. The CB-1 receptor agonist activity may be measured using a whole membrane capture technique using hCB1-CHO membranes. All incubations are done at room temperature. […]
(§2) Data are analyzed as follows: Background is subtracted from all wells. […] Percent antagonist inhibition is calculated by first normalizing the data to the signal generated by a saturating concentration of the full agonist (methanandamide). Then the data are analyzed using a 4-parameter logistic reduced fit (Activity Base™ and XLFit3™ from IDBS, Emeryville, Calif.). Kb values are determined using a modification of the Cheng-Prusoff relationship: Kb=IC50/(1+[agonist]/EC50), where “IC50” is determined from a four parameter fit of displacement curves, “[agonist]” is the agonist challenge concentration (nM), and “EC50” is determined from a four parameter fit of a full agonist concentration response curve (Cheng and Prusoff 1973). Mean Kb values are calculated as a mean of at least three independent determinations±standard error of the mean (SEM). […]

[2] = target: T1, hCB-1; experiment: hCB1-CHO antagonist mode SPA GTP-γ-35S binding assay; format: biochemical; design: purchased Applied Cell Sciences, Rockville, Md; host or cells: CHO cell membranes; conditions: antagonist mode vs methanandamide; read-out: hCB-1 SPA GTPγS CHO Membrane Antagonist Kb
Experimental: (§3) Compounds of the present invention may be tested for functional activity at the CB-1 and CB-2 receptors in both agonist and antagonist modes using SPA (Scintillation Proximity Assay) based GTP-γ-^35S binding assays. All assay components are prepared in assay buffer (20 mM HEPES, 100 mM NaCl, 5 mM MgCl2, pH 7.4) at room temperature. Semi-log dilutions of test compound are prepared in assay buffer containing BSA (0.125% final conc.) for the agonist mode assays. For the antagonist mode assays, test compounds are prepared in the same manner but also include an 80% efficacious dose of a full agonist (methanandamide). GTP-γ^35S binding for the antagonist assay may be measured in a 96 well format using a modification of an antibody capture technique previously described. (DeLapp, N W, et al. (1999) J Pharmacol Exp Ther 289:946-955.) The CB-2 receptor agonist activity may be measured using a similar method using hCB2-Sf9 membranes. The CB-1 receptor agonist activity may be measured using a whole membrane capture technique using hCB1-CHO membranes. All incubations are done at room temperature.
(§4) hCB1-CHO or rCB1-CHO membranes (Applied Cell Sciences, Rockville, Md.) and GDP (1 μM final) are added to ice cold assay buffer and homogenized. […] Plates are then centrifuged at 700×g for 10 min. and the radioactivity counted.
(§5) Data are analyzed as follows: Background is subtracted from all wells. […] Percent antagonist inhibition is calculated by first normalizing the data to the signal generated by a saturating concentration of the full agonist (methanandamide). Then the data are analyzed using a 4-parameter logistic reduced fit (Activity Base™ and XLFit3™ from IDBS, Emeryville, Calif.). Kb values are determined using a modification of the Cheng-Prusoff relationship: Kb=IC50/(1+[agonist]/EC50), where “IC50” is determined from a four parameter fit of displacement curves, “[agonist]” is the agonist challenge concentration (nM), and “EC50” is determined from a four parameter fit of a full agonist concentration response curve (Cheng and Prusoff 1973). […]

[3] = target: T2, hCB-2 (Homo sapiens, UniProt P34972); experiment: hCB2-Sf9 antagonist mode SPA GTP-γ-35S binding assay; format: biochemical; conditions: antagonist mode vs methanandamide; read-out: hCB-2 SPA GTPγS Sf9 Membrane Antagonist Kb
T2 construct: purchased Perkin Elmer, Boston, Mass; host or cells: Sf9 cell membranes
T2 sequence (P34972 whole entry): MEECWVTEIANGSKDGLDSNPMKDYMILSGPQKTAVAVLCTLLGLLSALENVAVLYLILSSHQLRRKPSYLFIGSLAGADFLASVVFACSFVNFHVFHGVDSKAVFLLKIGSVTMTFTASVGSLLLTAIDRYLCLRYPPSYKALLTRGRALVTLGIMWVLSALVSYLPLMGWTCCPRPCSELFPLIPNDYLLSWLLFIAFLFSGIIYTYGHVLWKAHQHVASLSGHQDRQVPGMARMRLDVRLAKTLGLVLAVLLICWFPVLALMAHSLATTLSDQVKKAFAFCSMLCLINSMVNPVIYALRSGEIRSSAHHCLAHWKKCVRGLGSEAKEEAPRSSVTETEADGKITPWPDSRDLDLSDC
Experimental: as §1, §2

[4] = target: T2, hCB-2; experiment: hCB2-Sf9 agonist mode SPA GTP-γ-35S binding assay; format: biochemical; conditions: read-out: hCB-2 SPA GTPγS Sf9 Membrane Agonist Relative EC50
Experimental: as §1
Data are analyzed as follows: Background is subtracted from all wells. […] Percent antagonist inhibition is calculated by first normalizing the data to the signal generated by a saturating concentration of the full agonist (methanandamide). […]

[5] = target: T3, rCB-1 (Rattus norvegicus, UniProt P20272); experiment: rCB1-CHO antagonist mode SPA GTP-γ-35S binding assay; format: biochemical; conditions: antagonist mode vs methanandamide; read-out: rCB-1 SPA GTPγS CHO Membrane Antagonist Kb
T3 construct: purchased Applied Cell Sciences, Rockville, Md; host or cells: CHO cell membranes
T3 sequence (P20272 whole entry): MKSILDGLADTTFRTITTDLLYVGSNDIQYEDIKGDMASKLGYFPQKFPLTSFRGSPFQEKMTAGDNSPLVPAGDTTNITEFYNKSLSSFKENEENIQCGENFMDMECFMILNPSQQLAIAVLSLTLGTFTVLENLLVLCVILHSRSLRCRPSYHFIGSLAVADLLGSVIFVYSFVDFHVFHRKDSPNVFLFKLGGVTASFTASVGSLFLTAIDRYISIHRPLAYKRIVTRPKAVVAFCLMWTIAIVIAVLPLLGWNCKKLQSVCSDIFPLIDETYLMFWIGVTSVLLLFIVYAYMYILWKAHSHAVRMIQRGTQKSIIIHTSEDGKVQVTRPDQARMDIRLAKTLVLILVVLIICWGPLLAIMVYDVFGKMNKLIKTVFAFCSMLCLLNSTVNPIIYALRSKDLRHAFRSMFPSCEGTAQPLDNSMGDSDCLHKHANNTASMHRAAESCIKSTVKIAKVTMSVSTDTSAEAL
Experimental: as §3, §4, §5

[6] = target: T4, CYP2C9 (Homo sapiens, UniProt P11712); experiment: Human CYP fingerprinting, sulfaphenazole inhibition; format: in vitro ADME; conditions: 4 μM, human liver microsomes, 30 min, 5 μM sulfaphenazole
T4 construct: pooled, mixed gender, human liver microsomes; from tissue; host or cells: pooled, mixed gender human liver microsomes
T4 sequence (P11712 whole entry): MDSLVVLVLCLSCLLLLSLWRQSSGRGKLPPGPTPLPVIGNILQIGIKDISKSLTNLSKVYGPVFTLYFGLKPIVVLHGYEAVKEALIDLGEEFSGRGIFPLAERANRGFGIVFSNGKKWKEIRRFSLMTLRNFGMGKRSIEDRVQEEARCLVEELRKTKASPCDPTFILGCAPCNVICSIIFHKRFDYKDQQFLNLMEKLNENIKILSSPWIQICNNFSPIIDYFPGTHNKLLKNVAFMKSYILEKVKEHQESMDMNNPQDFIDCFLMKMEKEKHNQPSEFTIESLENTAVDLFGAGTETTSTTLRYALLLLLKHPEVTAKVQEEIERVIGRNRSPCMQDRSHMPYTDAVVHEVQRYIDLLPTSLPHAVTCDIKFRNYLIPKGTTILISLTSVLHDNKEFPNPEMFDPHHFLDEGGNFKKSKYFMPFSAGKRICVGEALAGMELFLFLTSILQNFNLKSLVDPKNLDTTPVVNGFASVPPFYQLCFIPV
Experimental: (§6) CYP fingerprinting is well established technique and is used as an indication of potential risk of drug-drug interactions in the pharmaceutical sciences. Compounds of the present invention may be assayed by well known methods, essentially as follows: Compounds are incubated at 37° C. at a final concentration of 4 μM with pooled, mixed gender, human liver microsomes and 1 mM NADPH (Nicotine Adenine Dinucleotide Phosphate) (final conc.) for 0 and 30 min. without any CYP inhibitor and with each CYP inhibitor in separate incubations for 30 min. Each inhibitor is specific for an individual cytochrome P450. The specific inhibitors used for CYPs 2C9, 2D6 and 3A were sulfaphenazole, quinidine and ketoconazole, respectively. Ketoconazole (CYP3A) is made up at 25 mM in DMSO and then diluted in buffer to a final concentration of 10 μM. Quinidine (CYP2D6) is made up at 5 mM in 50/50 acetonitrile/water and then diluted in buffer to a final concentration of 10 μM. Sulfaphenazole (CYP2C9) is made up at 100 mM in DMSO and then diluted in buffer to a final concentration of 5 μM. Samples are analyzed by LC-MS in positive or negative electrospray mode using a Waters Acquity Ultra Performance LC coupled to a MicroMass Q-T of-2 mass spectrometer.
(§7) Data are analyzed using MetaboLynx™ version 4.1. […]

[7] = test system: CYP3A; experiment: Human CYP fingerprinting, ketoconazole inhibition; format: in vitro ADME; conditions: 4 μM, human liver microsomes, 30 min, 10 μM ketoconazole
Experimental: as §6, §7

[8] = target: T5, CYP2D6 (Homo sapiens, UniProt P10635); experiment: Human CYP fingerprinting, quinidine inhibition; format: in vitro ADME; conditions: 4 μM, human liver microsomes, 30 min, 10 μM quinidine
T5 construct: pooled, mixed gender, human liver microsomes; from tissue; host or cells: pooled, mixed gender human liver microsomes
T5 sequence (P10635 whole entry): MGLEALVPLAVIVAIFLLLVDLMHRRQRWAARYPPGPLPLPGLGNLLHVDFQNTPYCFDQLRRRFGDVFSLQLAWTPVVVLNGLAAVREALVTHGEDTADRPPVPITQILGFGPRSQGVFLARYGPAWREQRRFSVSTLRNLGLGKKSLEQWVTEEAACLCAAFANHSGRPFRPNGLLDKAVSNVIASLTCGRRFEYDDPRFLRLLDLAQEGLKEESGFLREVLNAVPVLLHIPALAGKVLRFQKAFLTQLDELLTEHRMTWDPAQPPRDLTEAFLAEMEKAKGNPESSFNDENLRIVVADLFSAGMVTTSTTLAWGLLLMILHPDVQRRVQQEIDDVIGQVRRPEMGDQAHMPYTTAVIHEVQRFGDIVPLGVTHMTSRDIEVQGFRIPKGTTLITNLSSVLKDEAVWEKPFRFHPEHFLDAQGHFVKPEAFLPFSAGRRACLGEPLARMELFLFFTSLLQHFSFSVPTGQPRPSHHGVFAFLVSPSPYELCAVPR
Experimental: as §6, §7

[9] = target: T1, hCB-1; experiment: hCB1-CHO agonist mode SPA GTP-γ-35S binding assay; format: biochemical; design: purchased Applied Cell Sciences, Rockville, Md; host or cells: CHO cell membranes
Experimental: as §3
hCB1-CHO membrane, GDP (1 μM final conc.), and saponin (10 μg/mL final conc., Sigma, St Louis, Mo.) are combined and prepared on ice as for the antagonist assays, above. Diluted test compounds, GTP-γ-^35S ([…] final conc.) and membranes are combined in the assay plate and incubated for 30 min. Then 1 mg/well Wheatgerm Agglutinin SPA beads (GE Healthcare, Piscataway, N.J.) are added, plates are sealed and vortexed and incubate for 1 hr. before spinning and counting in the same fashion as for the antagonist assays, above.
Data are analyzed as follows: Background is subtracted from all wells. Percent agonist efficacy is determine by normalizing agonist/inverse agonist dose response data to the response obtained for a full agonist (methanandamide). Percent antagonist inhibition is calculated by first normalizing the data to the signal generated by a saturating concentration of the full agonist (methanandamide). Then the data are analyzed using a 4-parameter logistic reduced fit (Activity Base™ and XLFit3™ from IDBS, Emeryville, Calif.). Kb values are determined using a modification of the Cheng-Prusoff relationship: Kb=IC50/(1+[agonist]/EC50), where “IC50” is determined from a four parameter fit of displacement curves, “[agonist]” is the agonist challenge concentration (nM), and “EC50” is determined from a four parameter fit of a full agonist concentration response curve (Cheng and Prusoff 1973). Mean Kb values are calculated as a mean of at least three independent determinations±standard error of the mean (SEM). […]

Compound: CC(C)(N[C@@H]1C[C@H](c2cccc(OC(F)(F)F)c2)N(c2ccc(C#N)cc2)C1=O)c1cccc(C(F)(F)F)n1 [27 Tosylate salt, 4-[(3R,5R)-3-[1-methyl-1-(6-trifluoromethyl-pyridin-2-yl)-ethylamino]-2-oxo-5-(3-trifluoromethoxy-phenyl)-pyrrolidin-1-yl]-benzonitrile tosylate]
- Kb [1]: 1.77 nM
- Kb [2]: 0.179 nM
- Kb [3]: > 18400 nM
- EC50 [4]: > 100000 nM
- Kb [5]: 0.238 nM
- Risk of Drug Drug Interaction (DDI) CYP2C9 [6]: low (a reduction in metabolite peak area of less than 30% (relative to the uninhibited control incubation) receives a designation of low risk of Drug Drug Interaction (DDI))
- Risk of Drug Drug Interaction (DDI) CYP3A [7]: Low
- Risk of Drug Drug Interaction (DDI) CYP2D6 [8]: Low
- EC50 ([9]; inverse agonism, read-out: hCB-1 SPA GTPγS CHO Membrane Agonist Relative EC50 inverse): 0.943 nM
- hCB-1 SPA GTPγS CHO Membrane Agonist % Relative Efficacy ([9]; normalized to full agonist methanandamide): −97.3%
